The experiment addresses human plasma kallikrein (Homo sapiens (Human), UniProt P03952). As to the kind of experiment: Plasma Kallikrein Activity Assay (chromogenic substrate S2302). The class given is biochemical. The following applies: 2 nM kallikrein, 80 μM S2302, 30° C., pH 7.8; Cheng-Prusoff. The essentials:
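2 nM human plasma kallikrein incubated at 30° C with 80 μM S2302 and increasing compound concentrations in 50 mM Tris-HCl pH 7.8, 200 mM NaCl, 2.5 mM CaCl2. Activity read as absorbance change at 405 nm; four-parameter logistic fit, Ki by Cheng-Prusoff.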
Sequence of human plasma kallikrein (P03952 391-638): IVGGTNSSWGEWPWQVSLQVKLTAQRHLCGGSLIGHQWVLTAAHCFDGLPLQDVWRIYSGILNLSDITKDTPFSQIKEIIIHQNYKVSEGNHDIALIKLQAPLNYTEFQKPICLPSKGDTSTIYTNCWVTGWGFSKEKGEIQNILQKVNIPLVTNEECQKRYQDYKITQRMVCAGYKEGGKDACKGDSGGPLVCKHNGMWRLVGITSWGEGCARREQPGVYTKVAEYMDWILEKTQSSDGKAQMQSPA
Sequence of human plasma kallikrein (P03952 20-390 partner): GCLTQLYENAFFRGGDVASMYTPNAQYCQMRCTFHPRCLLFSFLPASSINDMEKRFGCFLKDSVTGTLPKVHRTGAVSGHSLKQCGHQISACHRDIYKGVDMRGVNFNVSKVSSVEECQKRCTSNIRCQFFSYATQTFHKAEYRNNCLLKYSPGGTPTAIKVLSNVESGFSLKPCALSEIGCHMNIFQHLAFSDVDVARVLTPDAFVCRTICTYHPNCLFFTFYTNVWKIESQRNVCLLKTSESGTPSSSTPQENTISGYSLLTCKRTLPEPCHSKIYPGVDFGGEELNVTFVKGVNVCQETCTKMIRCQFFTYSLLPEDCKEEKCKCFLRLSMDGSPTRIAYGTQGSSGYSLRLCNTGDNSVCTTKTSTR
Consider `CO[C@@H]1C[C@H](C(=O)Nc2cc(C(N)(CCC3CC3)c3ccncc3)ccc2F)N(C(=O)c2cccc(C#N)c2)C1` (stereo partly drawn) [Compound 86a, (2R,4R)-N-(5-((+)-1-amino-3-cyclopropyl-1-(pyridin-4-yl)propyl)-2-fluorophenyl)-1-(3-cyanobenzoyl)-4-methoxypyrrolidine-2-carboxamide], for which the Ki is greater than 100 nM. In turn, `CO[C@]1(c2ccccc2)C[C@H](C(=O)Nc2cc(C(N)(CCC3CC3)c3ccccn3)ccc2F)N(C(=O)Nc2ccc(Cl)cn2)C1` (stereo partly drawn) [Compound 35a, (2R,4S)-N2-(5-((+)-1-amino-3-cyclopropyl-1-(pyridin-2-yl)propyl)-2-fluorophenyl)-N1-(5-chloropyridin-2-yl)-4-methoxy-4-phenylpyrrolidine-1,2-dicarboxamide] displayed a Ki of 50 to 100 nM.

Turning to `O=C(Nc1cc(C(NCC2CC2)c2ccccc2)ccc1F)[C@H]1C[C@@H](O)CN1C(=O)Nc1ccc(Cl)cc1` (stereo partly drawn) [Compound 1p, (2R,4R)-N1-(4-chlorophenyl)-N2-(5-(((cyclopropylmethyl)amino)(phenyl)methyl)-2-fluorophenyl)-4-hydroxypyrrolidine-1,2-dicarboxamide], the Ki is greater than 100 nM. The figure for `NC(CCC1CC1)(c1ccncc1)c1ccc(F)c(NC(=O)[C@H]2CC(F)(F)CN2C(=O)Nc2ccc(Cl)cn2)c1` (stereo partly drawn) [Compound 53d, (R)-N2-(5-((+)-1-amino-3-cyclopropyl-1-(pyridin-4-yl)propyl)-2-fluorophenyl)-N1-(5-chloropyridin-2-yl)-4,4-difluoropyrrolidine-1,2-dicarboxamide] is less than 50 nM; for `CO[C@@H]1C[C@H](C(=O)Nc2cccc(C(N)(CCC3CC3)c3ccncc3)c2)N(C(=O)Nc2ccc(Cl)cn2)C1` (stereo partly drawn) [Compound 75e, (2R,4R)-N2-(3-((+)-1-amino-3-cyclopropyl-1-(pyridin-4-yl)propyl)phenyl)-N1-(5-chloropyridin-2-yl)-4-methoxypyrrolidine-1,2-dicarboxamide] it is less than 50 nM; for `N#Cc1cccc([C@@H](NCC2CC2)c2ccc(F)c(NC(=O)[C@H]3C[C@@H](O)CN3C(=O)Nc3ccc(Cl)cc3)c2)c1` [Compound 60a, (2R,4R)-N1-(4-chlorophenyl)-N2-(5-((R)-(3-cyanophenyl)(cyclopropylmethylamino)methyl)-2-fluorophenyl)-4-hydroxypyrrolidine-1,2-dicarboxamide] it is greater than 100 nM. The figure for `CO[C@@H]1C[C@H](C(=O)Nc2cc([C@](CCC3CC3)(N[S@+]([O-])C(C)(C)C)c3ccncc3)ccc2F)N(S(=O)(=O)c2ccc3cc(Cl)ccc3c2)C1` [Compound 87b, (2R,4R)-1-(6-chloronaphthalen-2-ylsulfonyl)-N-(5-((S)-3-cyclopropyl-1-((R)-1,1-dimethylethylsulfinamido)-1-(pyridin-4-yl)propyl)-2-fluorophenyl)-4-methoxypyrrolidine-2-carboxamide] is greater than 100 nM; for `N#Cc1cccc(C(N)(CCC2CC2)c2ccc(F)c(NC(=O)[C@@H]3C[C@@H](O)CN3C(=O)Nc3ccc(Cl)cc3)c2)c1` (stereo partly drawn) [Compound 5e, (2S,4R)-N2-(5-((−)-1-amino-1-(3-cyanophenyl)-3-cyclopropylpropyl)-2-fluorophenyl)-N1-(4-chlorophenyl)-4-hydroxypyrrolidine-1,2-dicarboxamide] it is greater than 100 nM. `CO[C@H]1C[C@@H](C(=O)Nc2cc(C(N)(CCC3CC3)c3cccc(C#N)c3)ccc2F)N(C(=O)Nc2ccc(Cl)cc2)C1` (stereo partly drawn) [Compound 11e, (2S,4S)-N2-(5-((−)-1-amino-1-(3-cyanophenyl)-3-cyclopropylpropyl)-2-fluorophenyl)-N1-(4-chlorophenyl)-4-methoxypyrrolidine-1,2-dicarboxamide] registered a Ki greater than 100 nM. In turn, `N#Cc1cccc(C(N)(CCC2CC2)c2ccc(F)c(NC(=O)[C@H]3C[C@@H](O)CN3C(=O)Nc3ccc([N+](=O)[O-])cc3)c2)c1` (stereo partly drawn) [Compound 25b, (2R,4R)-N2-(5-((+)-1-amino-1-(3-cyanophenyl)-3-cyclopropylpropyl)-2-fluorophenyl)-4-hydroxy-N1-(4-nitrophenyl)pyrrolidine-1,2-dicarboxamide] came in with a Ki greater than 100 nM. Compound `N#Cc1cccc(C(N)(CCC2CC2)c2ccc(F)c(NC(=O)[C@H]3C[C@@H](O)CN3C(=O)Nc3ccccc3)c2)c1` (stereo partly drawn) [Compound 21d, (2R,4R)-N2-(5-((+)-1-amino-1-(3-cyanophenyl)-3-cyclopropylpropyl)-2-fluorophenyl)-4-hydroxy-N1-phenylpyrrolidine-1,2-dicarboxamide] displayed a Ki greater than 100 nM. As for `NC(CCC1CC1)(c1ccc(F)c(NC(=O)[C@H]2C[C@@H](O)CN2C(=O)Nc2ccc(Cl)cn2)c1)c1ccccn1` (stereo partly drawn) [Compound 62c, (2R,4R)-N2-(5-((+)-1-amino-3-cyclopropyl-1-(pyridin-2-yl)propyl)-2-fluorophenyl)-N1-(5-chloropyridin-2-yl)-4-hydroxypyrrolidine-1,2-dicarboxamide], the figure is less than 50 nM. As for `CO[C@@H]1C[C@H](C(=O)Nc2cc(C(N)(CCC3CC3)c3ccncc3)ccc2F)N(C(=O)c2ccc3cc[nH]c3c2)C1` (stereo partly drawn) [Compound 82a, (2R,4R)-N-(5-(-(+)-1-amino-3-cyclopropyl-1-(pyridin-4-yl)propyl)-2-fluorophenyl)-1-(1H-indole-6-carbonyl)-4-methoxypyrrolidine-2-carboxamide], the figure is greater than 100 nM; as for `CO[C@@H]1C[C@H](C(=O)Nc2cc(C(N)(CCC3CC3)c3ccccn3)ccc2F)N(C(=O)Nc2ccc(Cl)cc2)C1` (stereo partly drawn) [Compound 65b, (2R,4R)-N2-(5-((+)-1-amino-3-cyclopropyl-1-(pyridin-2-yl)propyl)-2-fluorophenyl)-N1-(4-chlorophenyl)-4-methoxypyrrolidine-1,2-dicarboxamide], less than 50 nM; as for `N#Cc1cccc(C(N)(CCC2CC2)c2ccc(F)c(NC(=O)[C@H]3C[C@](O)(c4ccccc4)CN3)c2)c1` (stereo partly drawn) [Compound 29d, (2R,4S)-N-(5-((−)-1-amino-1-(3-cyanophenyl)-3-cyclopropylpropyl)-2-fluorophenyl)-4-hydroxy-4-phenylpyrrolidine-2-carboxamide], greater than 100 nM.

As to `N#Cc1cccc(C(N)(CCC2CC2)c2ccc(F)c(NC(=O)[C@H]3C[C@@H](O)CN3C(=O)Nc3ccc(F)cc3)c2)c1` (stereo partly drawn) [Compound 24b, (2R,4R)-N2-(5-((+)-1-amino-1-(3-cyanophenyl)-3-cyclopropylpropyl)-2-fluorophenyl)-N1-(4-fluorophenyl)-4-hydroxypyrrolidine-1,2-dicarboxamide], the Ki is greater than 100 nM. `N#Cc1cccc(C(N)(CCC2CC2)c2ccc(F)c(NC(=O)[C@H]3C[C@@H](O)CN3C(=O)Nc3ccc(N)cc3)c2)c1` (stereo partly drawn) [Compound 28b, (2R,4R)-N2-(5-((+)-1-amino-1-(3-cyanophenyl)-3-cyclopropylpropyl)-2-fluorophenyl)-N1-(4-aminophenyl)-4-hydroxypyrrolidine-1,2-dicarboxamide] yielded a Ki greater than 100 nM. The figure for `N#Cc1cccc(C(N)(CCC2CC2)c2ccc(F)c(NC(=O)[C@H]3C[C@@H](O)CN3C(=O)Nc3ccc(Cl)cn3)c2)c1` (stereo partly drawn) [Compound 14h, (2R,4R)-N2-(5-(1-amino-1-(3-cyanophenyl)-3-cyclopropylpropyl)-2-fluorophenyl)-N1-(5-chloropyridin-2-yl)-4-hydroxypyrrolidine-1,2-dicarboxamide] is less than 50 nM; for `CO[C@@H]1C[C@H](C(=O)Nc2cc(C(CCC3CC3)n3ccccc3=O)ccc2F)N(C(=O)Nc2ccc(Cl)cn2)C1` (stereo partly drawn) [Compound 42l, (2R,4R)-N1-(5-chloropyridin-2-yl)-N2-(5-(3-cyclopropyl-1-(2-oxopyridin-1(2H)-yl)propyl)-2-fluorophenyl)-4-methoxypyrrolidine-1,2-dicarboxamide] it is less than 50 nM. Compound `N#Cc1cccc(C(N)(CCC2CC2)c2ccc(F)c(NC(=O)[C@H]3C[C@@H](O)CN3C(=O)Nc3ccc(C(F)(F)F)cc3)c2)c1` (stereo partly drawn) [Compound 27b, (2R,4R)-N2-(5-((+)-1-amino-1-(3-cyanophenyl)-3-cyclopropylpropyl)-2-fluorophenyl)-4-hydroxy-N1-(4-(trifluoromethyl)phenyl)pyrrolidine-1,2-dicarboxamide] yielded a Ki greater than 100 nM. As for `CO[C@@H]1C[C@H](C(=O)Nc2cc(C(CCC3CC3)(N[S@+]([O-])C(C)(C)C)c3ccccc3)ccc2F)N(C(=O)Nc2ccc(Cl)cn2)C1` (stereo partly drawn) [Compound 66c, (2R,4R)-N1-(5-chloropyridin-2-yl)-N2-(5-((+)-3-cyclopropyl-1-((R)-1,1-dimethylethylsulfinamido)-1-phenylpropyl)-2-fluorophenyl)-4-methoxypyrrolidine-1,2-dicarboxamide], the figure is greater than 100 nM; as for `CC(C)(C)[S@@+]([O-])NC(CCC1CC1)(c1cccc(C#N)c1)c1ccc(F)c(NC(=O)[C@@H]2CCCN2C(=O)Nc2ccc(Cl)cc2)c1` (stereo partly drawn) [Compound 8b, (S)-N1-(4-chlorophenyl)-N2-(5-((−)-1-(3-cyanophenyl)-3-cyclopropyl-1-((R)-1,1-dimethylethylsulfinamido)propyl)-2-fluorophenyl)pyrrolidine-1,2-dicarboxamide], greater than 100 nM; as for `N#Cc1cccc(C(N)(CCC2CC2)c2ccc(F)c(NC(=O)[C@H]3CCCN3C(=O)Nc3ccc(Cl)cc3)c2)c1` (stereo partly drawn) [Compound 7c, (R)-N2-(5-((+)-1-amino-1-(3-cyanophenyl)-3-cyclopropylpropyl)-2-fluorophenyl)-N1-(4-chlorophenyl)pyrrolidine-1,2-dicarboxamide], greater than 100 nM. As for `CO[C@@H]1C[C@H](C(=O)Nc2cc(C(N)(CCC3CC3)c3ccncc3)ccc2F)N(C(=O)c2ccc(Cl)c(N)c2)C1` (stereo partly drawn) [Compound 84a, (2R,4R)-N-(5-((+)-1-amino-3-cyclopropyl-1-(pyridin-4-yl)propyl)-2-fluorophenyl)-1-(3-amino-4-chlorobenzoyl)-4-methoxypyrrolidine-2-carboxamide], the figure is greater than 100 nM; as for `CC(C)(C)[S@@+]([O-])NC(CCC1CC1)(c1cccc(C#N)c1)c1ccc(F)c(NC(=O)[C@H]2CCCN2C(=O)OCc2ccccc2)c1` (stereo partly drawn) [Compound 12b, (R)-benzyl 2-(5-((−)-1-(3-cyanophenyl)-3-cyclopropyl-1-((R)-1,1-dimethylethylsulfinamido)propyl)-2-fluorophenylcarbamoyl)pyrrolidine-1-carboxylate], greater than 100 nM.

One may read the Ki as a measure of affinity in units of concentration, obtained from inhibition or displacement. Lower therefore signals a stronger hold on the target.

The record behind these values is patent publication US10562850B2, “Human plasma kallikrein inhibitors” (priority 2015, dated 2020).
